The subject of this assay is BDF1 mice, B16 melanoma ip, median survival T/C. Kind of assay: NCI In Vivo Anticancer Drug Screen. Data for tumor model B16 Melanoma (intraperitoneal) in B6D2F1 (BDF1) mice. The conditions noted are these: endpoint: median survival time, higher = longer survival. The method in brief:
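Tumor-bearing mice received test compound or vehicle. Survival or tumor size was then measured in both groups. The treated-group figure was divided by the control-group figure.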

The mark [1] stands for this setting: dose: 6.25 mg/kg/injection, schedule: Q01DX009 (ip), vehicle: saline with Tween-80.
[2] abbreviates: dose: 12.5 mg/kg/injection, schedule: Q01DX009 (ip), vehicle: saline with Tween-80.
Where [3] appears, read: dose: 25.0 mg/kg/injection, schedule: Q01DX009 (ip), vehicle: saline with Tween-80.
Setting [4] is: dose: 50.0 mg/kg/injection, schedule: Q01DX009 (ip), vehicle: saline with Tween-80.
[5] abbreviates: dose: 100.0 mg/kg/injection, schedule: Q01DX009 (ip), vehicle: Klucel (hydroxypropylcellulose) (HPC).
Where [6] appears, read: dose: 200.0 mg/kg/injection, schedule: Q01DX009 (ip), vehicle: Klucel (hydroxypropylcellulose) (HPC).
Setting [7] is: dose: 400.0 mg/kg/injection, schedule: Q01DX009 (ip), vehicle: Klucel (hydroxypropylcellulose) (HPC).
[8] abbreviates: dose: 50.0 mg/kg/injection, schedule: Q01DX009 (ip), vehicle: Klucel (hydroxypropylcellulose) (HPC).
Setting [9] is: dose: 25.0 mg/kg/injection, schedule: Q01DX009 (ip), vehicle: Klucel (hydroxypropylcellulose) (HPC).

Where “and” joins values, the source holds several entries; their conditions need not be identical. Equal values may be shown once. Toxic doses and inconclusive results are not listed.

With `CN(CCO)/N=N/c1nc[nH]c1C(N)=O`, the T/C (dose: 50.0 mg/kg/injection, schedule: Q01DX009 (ip), vehicle: carboxymethylcellulose (CMC)) is 105 % of control.
Consider `CC/C(=C(/CC)c1ccc(O)cc1)c1ccc(O)cc1`, for which the T/C was 89 % of control under setting [1]; 89 % of control under setting [2]; 89 % of control and 102 % of control under setting [3]; 100 % of control under setting [4]; 97 % of control (dose: 200.0 mg/kg/injection, schedule: Q01DX009 (ip), vehicle: saline with Tween-80).
For the molecule `CC(=O)CC(=O)NC1CCCC1`, the T/C is, setting by setting: under setting [5], 96 % of control; under setting [6], 96 % of control; under setting [7], 107 % of control.
Take `NC(=O)CC(N)C(=O)O` (stereo not drawn): the T/C was 99 % of control (dose: 50.0 mg/kg/injection, schedule: Q01DX009 (ip), vehicle: other); 96 % of control (dose: 100.0 mg/kg/injection, schedule: Q01DX009 (ip), vehicle: other); 92 % of control (dose: 100.0 mg/kg/injection, schedule: Q01DX009 (ip), vehicle: saline); 105 % of control (dose: 200.0 mg/kg/injection, schedule: Q01DX009 (ip), vehicle: other); 87 % of control (dose: 200.0 mg/kg/injection, schedule: Q01DX009 (ip), vehicle: saline); 96 % of control (dose: 400.0 mg/kg/injection, schedule: Q01DX009 (ip), vehicle: other). Besides, the T/C is 87 % of control (dose: 400.0 mg/kg/injection, schedule: Q01DX009 (ip), vehicle: saline); 104 % of control (dose: 800.0 mg/kg/injection, schedule: Q01DX009 (ip), vehicle: other); 103 % of control (dose: 1600.0 mg/kg/injection, schedule: Q01DX009 (ip), vehicle: other).
As to `O=C(Nc1cccc(Cl)c1)ON1C(=O)C2C(C1=O)C1(Cl)C(Cl)C(Cl)C2(Cl)C1(Cl)Cl` (stereo not drawn), the T/C reads like this: under setting [2], 87 % of control; under setting [3], 96 % of control.
As for `COc1cc(C2N(c3ccccc3)CCN2c2ccccc2)cc(OC)c1OC`, the T/C reads like this: under setting [5], 106 % of control; under setting [6], 103 % of control; under setting [7], 96 % of control.
Consider `O=S1(=O)N2CN3CN(C2)CN1C3`, for which the T/C runs as follows: under setting [8], 103 % of control; under setting [5], 86 % of control.
Regarding `CCOC12c3ccccc3N(S(C)(=O)=O)C(C)C1C2(Br)Br` (stereo not drawn), the T/C was 104 % of control (dose: 75.0 mg/kg/injection, schedule: Q04DX003 (ip), vehicle: Klucel (hydroxypropylcellulose) (HPC)); 87 % of control (dose: 150.0 mg/kg/injection, schedule: Q04DX003 (ip), vehicle: Klucel (hydroxypropylcellulose) (HPC)); 107 % of control (dose: 300.0 mg/kg/injection, schedule: Q04DX003 (ip), vehicle: Klucel (hydroxypropylcellulose) (HPC)).
Take `N=C(N)c1ccc(OCCCOc2ccc(C(=N)N)cc2Br)c(Br)c1`: the T/C runs as follows: (dose: 6.25 mg/kg/injection, schedule: Q01DX009 (ip), vehicle: saline) 97 % of control and 114 % of control; (dose: 12.5 mg/kg/injection, schedule: Q01DX009 (ip), vehicle: saline) 97 % of control and 111 % of control; (dose: 25.0 mg/kg/injection, schedule: Q01DX009 (ip), vehicle: saline) 97 % of control and 111 % of control.
For the molecule `CC1CCN(c2ccc([N+](=O)[O-])cc2[N+](=O)[O-])CC1`, the T/C is 100 % of control under setting [8], 100 % of control under setting [5] and 112 % of control under setting [6].
`CC(=O)O[C@H]1[C@H]2O[C@]23[C@@H]2CC[C@@H]4C[C@@H](O)CC[C@]4(C)[C@H]2CC[C@]3(C)[C@H]1c1ccc(=O)oc1`: the T/C (dose: 3.75 mg/kg/injection, schedule: Q01DX009 (ip), vehicle: saline with Tween-80) is 92 % of control and the T/C (dose: 7.5 mg/kg/injection, schedule: Q01DX009 (ip), vehicle: saline with Tween-80) is 90 % of control.
Take `C/C=C/c1cc2n(c1)C(=O)c1cc(OC3OC(C)C(NC)C(C)(O)C3O)c(C)c(O)c1NC2O` (stereo not drawn): the T/C is, setting by setting: (dose: 0.02 mg/kg/injection, schedule: Q04DX003 (ip), vehicle: DMSO) 168 % of control; (dose: 0.5 micrograms/kg/injection, schedule: Q04DX003 (ip), vehicle: saline) 184 % of control; (dose: 1.0 micrograms/kg/injection, schedule: Q04DX003 (ip), vehicle: saline) 184 % of control; (dose: 2.0 micrograms/kg/injection, schedule: Q04DX003 (ip), vehicle: saline) 197 % of control; (dose: 16.0 micrograms/kg/injection, schedule: Q04DX003 (ip), vehicle: saline) 151 % of control.
In the case of `CCCCOc1ccc(NC(=O)CCl)cc1`, the T/C reads like this: under setting [2], 99 % of control; under setting [3], 100 % of control; under setting [4], 99 % of control.
Regarding `O=C(CCl)Nc1cc(C(F)(F)F)ccc1Cl`, the T/C runs as follows: under setting [1], 103 % of control; under setting [2], 95 % of control; under setting [3], 93 % of control.
For the molecule `Oc1c(Cl)cc(Cl)cc1/C=N/NC(=S)Nc1cc(C(F)(F)F)cc(C(F)(F)F)c1`, the T/C is 92 % of control (dose: 50.0 mg/kg/injection, schedule: Q01DX009 (ip), vehicle: olive oil, sesame oil, peanut oil) and 96 % of control (dose: 200.0 mg/kg/injection, schedule: Q01DX009 (ip), vehicle: olive oil, sesame oil, peanut oil).
Take `CC(=O)OCc1cc(=O)n(C)c2c3c4c(cc12)c(C)cc(=O)n4CO3`: the T/C reads like this: (dose: 6.25 mg/kg/injection, schedule: Q01DX009 (ip), vehicle: Klucel (hydroxypropylcellulose) (HPC)) 122 % of control; (dose: 12.5 mg/kg/injection, schedule: Q01DX009 (ip), vehicle: Klucel (hydroxypropylcellulose) (HPC)) 120 % of control; under setting [9], 121 % of control.
On to `CCN(N=Nc1ccc(C)cc1)N=Nc1ccc(C)cc1`, for which the T/C was 90 % of control under setting [5], 96 % of control under setting [6] and 86 % of control under setting [7].
For `O=C(Nc1ccc(C2=NCCN2)cc1)c1ccc(C(=O)Nc2ccc(C3=NCCN3)cc2)c(Cl)c1`, the T/C reads like this: (dose: 3.12 mg/kg/injection, schedule: Q01DX009 (ip), vehicle: saline with Tween-80) 93 % of control; under setting [1], 104 % of control; (dose: 8.0 mg/kg/injection, schedule: Q01DX009 (ip), vehicle: saline with Tween-80) 104 % of control; under setting [2], 108 % of control; (dose: 16.0 mg/kg/injection, schedule: Q01DX009 (ip), vehicle: saline with Tween-80) 102 % of control; under setting [3], 105 % of control.
As to `C=C1CCN(c2ccccc2Cl)C1=O`, the T/C runs as follows: (dose: 4.0 mg/kg/injection, schedule: Q01DX009 (ip), vehicle: saline + alcohol) 104 % of control; (dose: 8.0 mg/kg/injection, schedule: Q01DX009 (ip), vehicle: saline + alcohol) 98 % of control; (dose: 16.0 mg/kg/injection, schedule: Q01DX009 (ip), vehicle: saline + alcohol) 101 % of control; (dose: 32.0 mg/kg/injection, schedule: Q01DX009 (ip), vehicle: saline + alcohol) 121 % of control.
In the case of `Cc1ccc(SSc2ccc(C)cc2[N+](=O)[O-])c([N+](=O)[O-])c1`, the T/C was 100 % of control under setting [9]; 89 % of control under setting [8]; 86 % of control and 93 % of control under setting [5].

The record behind these values is PubChem BioAssay AID192 (DTP/NCI, 2004).
